# Measured values from US7745493B2, “Methods of treating tardive dyskinesia and other movement disorders” (priority 1998, dated 2010).
# Marks after values point to notes of the source that are not given here.
# How the values were obtained:
# Type in all cases: in vivo, human
# [1] = system: patients with dyskinetic movements (TD, tics); assay: Inventor's overall clinical experience, cases 1-6
# Source text: The ratio of acamprosate to magnesium can be varied to optimize the therapeutic synergy of the two ingredients. […] At typical therapeutic dosages of acetylhomotaurinate, the amount of magnesium is too low to have therapeutically-relevant effects on glutamate transmission. In my experience, I have had excellent therapeutic results from combining a 2 gram daily dosage of acamprosate with 1 gram of elemental magnesium, given as a salt or chelate. […] Allowing for variations in individual response, and variations in the intestinal absorption of both acamprosate and magnesium, I assert that the optimal ratio of mg:acetylhomotaurinate for an individual patient will be somewhere between 1:6 and 1:1. […] Although magnesium N-acetylhomotaurinate may be slightly more efficacious than calcium N-acetylhomotaurinate for treatment of tic disorders, in the present application we are effectively increasing the magnesium content of acamprosate and related compounds by administering magnesium ion (as a salt or chelate) in combination with a salt of N-acetylhomotaurinate, because there is a significant benefit to administering a higher ratio of magnesium to acamprosate than is present in the magnesium salt of acamprosate.
# Relief of symptoms began within 48 hours of administration of acamprosate, and, if a patient discontinued acamprosate, symptoms returned immediately. […]
# [2] = system: person two with long-standing TD; assay: Trail Making Test, Trails B (Case 1); conditions: ON drug; for Trails B Seconds: lower score better
# Source text: The tests showing such results included Simple Reaction Time, the Trail Making Test (both parts) and the Paced Auditory Serial Addition Test (PASAT). Choice reaction time, a test requiring both basic attention and concentration on a specific task that must be kept in mind, was slightly better on acamprosate, consistent with the hypothesis that general cognitive function, as opposed to simple attention, improves with acamprosate treatment.
# (§1) The following tables report on the results of the neuropsychological tests (Drug I is memantine and Drug II is acamprosate): […]
# [3] = system: person one with long-standing TD; assay: Case Report 2: clinical observation of TD; conditions: Case 2; for effect on involuntary movements of TD: acamprosate 666 mg three times daily added to memantine, magnesium oxide 250 mg three times a day added to acamprosate; for cognitive symptoms / memory: subjective
# Source text: person one had long-standing TD following decades of treatment with the neuroleptic drug perphenazine. Their involuntary movements comprised bilateral chorea of the upper extremities, plus writhing of the tongue and tongue-biting. Both of the latter movements led to a very sore tongue. In addition, the patient experienced impairment of their short-term memory, which was attributed primarily to cerebrovascular disease.
# They also continued to have a sore tongue. […] In addition to memantine, the patient regularly took antiepileptic drugs (gabapentin and lamotrigine), antiplatelet agents (aspirin and ticlopidine), as well as medications for hypertension, glaucoma and gastrointestinal symptoms (isosorbide mononitrate, metoprolol, timolol eye drops and olsalazine).
# The patient was placed on a treatment regime that included administration of 666 mg of acamprosate, three times daily. In this case, acamprosate was added to the patient's regimen, which continued to include memantine. […] Despite past evidence from formal testing that the patient had impaired short-term memory, they performed normally on a two-sentence memory task, which involved testing the patient's recall ability using two sentences containing 13 separate details. On the two-sentence memory task, within three attempts the patient was able to recall 9 details and, using a multiple choice format, was able to recall a total of 11 details. Recall of 9 details on the third attempt would be normal for a middle-aged adult, let alone one […].
# After a full year on memantine and acamprosate, the memantine was discontinued, with little change in the patient's symptoms.
# Magnesium oxide, 250 mg three times a day, was added, each dose being taken together with the acamprosate. […] The effect was definite: movements worsened when magnesium oxide was stopped and improved when it was restarted. After a month on magnesium, the dosage of acamprosate was increased to 666 mg four times a day, with 250 mg of magnesium oxide given together with each dose. […] The only residual sign of TD was a mild degree of involuntary movement of the hands.
# [4] = system: person two with long-standing TD; assay: Rey-Osterrieth Complex Figure (Case 1); conditions: ON drug, higher score better
# Source text: as §1
# [5] = system: person two with long-standing TD; assay: Verbal Fluency (Case 1); conditions: ON drug
# Source text: as §1
# [6] = system: person two with long-standing TD; assay: Figural Fluency (Case 1); conditions: ON drug
# Source text: as §1
# [7] = system: person two with long-standing TD; assay: Digit Symbol (Case 1); conditions: ON drug, higher score better
# Source text: as §1
# [8] = system: person two with long-standing TD; assay: Grip Strength (Case 1); conditions: ON drug, higher score better
# Source text: as §1
# [9] = system: person two with long-standing TD; assay: California Verbal Learning Test 16-items (Case 1); conditions: ON drug
# Source text: as §1
smiles,measurement,setting,value
"CC(=O)NCCCS(=O)(=O)O [acamprosate, calcium N-acetylhomotaurinate]",time to beginning of relief of symptoms,[1],≤ 48 h
same,Trails B Errors,[2],0
same,Trails B Seconds,[2],43″
same,persistent symptoms on acamprosate after memantine discontinued,[3]; 666 mg three times a day,"mild choreatic movements on the hands, mild involuntary movements of the tongue and jaw"
same,effect on involuntary movements of TD,[3],chorea and tongue-biting stopped completely
same,cognitive symptoms / memory,[3],memory improved
CC12CC3CC(C)(C1)CC(N)(C3)C2 [memantine],Rey-Osterrieth Complex Figure Copy Organization,[4],5
same,Rey-Osterrieth Complex Figure Copy Presence & Accuracy,[4],20
same,Rey-Osterrieth Complex Figure Delayed Retention,[4],−11.1
same,Rey-Osterrieth Complex Figure Immediate Retention,[4],−55
same,Trails B Errors,[2],0
same,Trails B Seconds,[2],118″
same,Verbal Fluency Category (Animals) Per,[5],Per = 0^b
same,Verbal Fluency Letter (CFL) Per,[5],Per = 2^b
same,Verbal Fluency Category (Animals) Total,[5]; higher score better,Total = 25
same,Verbal Fluency Letter (CFL) Total,[5]; higher score better,Total = 70
same,effect on involuntary movements of TD,[3],"improved, but continued at a mild-to-moderate level"
same,cognitive symptoms / memory,[3],did not improve
same,Figural Fluency Unique Designs,[6]; higher score better,124
same,Figural Fluency Perseverations,[6]; lower score better,8
same,Digit Symbol,[7],34
same,Grip Strength DH,[8],DH = 17.7
same,Grip Strength NDH,[8],NDH = 21.7
same,CVLT List A 1-5 total (80 max),[9]; higher score better,53
same,CVLT List A Trial 1,[9]; higher score better,7
same,CVLT List A Trial 5,[9]; higher score better,13
same,CVLT List B,[9]; higher score better,7
same,CVLT Long-Delay Cued Recall,[9]; higher score better,15
same,CVLT Long-Delay Free Recall,[9]; higher score better,12
same,CVLT Recognition Hits,[9]; higher score better,16
same,CVLT Short-Delay Cued Recall,[9]; higher score better,13
same,CVLT Short-Delay Free Recall,[9]; higher score better,10
same,CVLT False Positives,[9]; lower score better,3
same,CVLT Intrusions,[9]; lower score better,6
same,CVLT Perseverations,[9]; lower score better,23
